Assay results published in ChEMBL document CHEMBL3580650, “Synthesis and Initial in Vivo Studies with [(11)C]SB-216763: The First Radiolabeled Brain Penetrative Inhibitor of GSK-3” (ACS Med Chem Lett, 2015).

Legend:
[1] = Drug uptake in cortex of rhesus monkey brain at 89 +/- 3 MBq, iv administered as bolus dose for 1 min measured over 90 mins post injection by MicroPET image analysis; type: ADME, organism-based, Macaca mulatta; conditions: in vivo
[2] = tested on: Thalamus; experiment: Drug uptake in thalamus of Wistar rat brain at 48.8 MBq, iv administered as bolus dose for 30 secs measured over 120 mins post injection by MicroPET image analysis; type: ADME, organism-based; conditions: in vivo
[3] = tested on: Brain; experiment: Drug uptake in brain of Wistar rat at 48.8 MBq, iv administered as bolus dose for 30 secs measured at 3 mins post wash out by MicroPET image analysis; type: ADME, organism-based; conditions: in vivo, 0.05 h
[4] = Drug uptake in cerebellum of rhesus monkey brain at 89 +/- 3 MBq, iv administered as bolus dose for 1 min measured over 90 mins post injection by MicroPET image analysis; type: ADME, organism-based, Macaca mulatta; conditions: in vivo
[5] = tested on: Cerebellum; experiment: Drug uptake in cerebellum of Wistar rat brain at 48.8 MBq, iv administered as bolus dose for 30 secs measured over 120 mins post injection by MicroPET image analysis; type: ADME, organism-based; conditions: in vivo
[6] = Drug uptake in thalamus of rhesus monkey brain at 89 +/- 3 MBq, iv administered as bolus dose for 1 min measured over 90 mins post injection by MicroPET image analysis; type: ADME, organism-based, Macaca mulatta; conditions: in vivo
[7] = tested on: Cortex; experiment: Drug uptake in cortex of Wistar rat brain at 48.8 MBq, iv administered as bolus dose for 30 secs measured over 120 mins post injection by MicroPET image analysis; type: ADME, organism-based; conditions: in vivo
[8] = tested on: Brain; experiment: Drug uptake in brain of rhesus monkey at 89 +/- 3 MBq, iv administered as bolus dose for 1 min measured at 5 mins post wash out by MicroPET image analysis; type: ADME, organism-based, Macaca mulatta; conditions: in vivo
[9] = tested on: Striatum; experiment: Drug uptake in striatum of rhesus monkey brain at 89 +/- 3 MBq, iv administered as bolus dose for 1 min measured over 90 mins post injection by MicroPET image analysis; type: ADME, organism-based, Macaca mulatta; conditions: in vivo
[10] = tested on: Striatum; experiment: Drug uptake in striatum of Wistar rat brain at 48.8 MBq, iv administered as bolus dose for 30 secs measured over 120 mins post injection by MicroPET image analysis; type: ADME, organism-based; conditions: in vivo

- Drug uptake [1]: Active
- Drug uptake [2]: Active
- SUV [3]: 2.5
- Drug uptake [4]: Active
- Drug uptake [5]: Active
- Drug uptake [6]: Active
- Drug uptake [7]: Active
- SUV [8]: 1.9
- Drug uptake [9]: Active
- Drug uptake [10]: Active
SMILES: [11CH3]n1cc(C2=C(c3ccc(Cl)cc3Cl)C(=O)NC2=O)c2ccccc21
